Consider 15 molecules from patent publication US20080119515A1, “Heterocyclic Kinase Inhibitors: Methods of Use and Synthesis” (priority 2003, published 2008).

The target in the test is T1, ZAP-70 (Homo sapiens, UniProt P43403).
T1 sequence (P43403 1-619): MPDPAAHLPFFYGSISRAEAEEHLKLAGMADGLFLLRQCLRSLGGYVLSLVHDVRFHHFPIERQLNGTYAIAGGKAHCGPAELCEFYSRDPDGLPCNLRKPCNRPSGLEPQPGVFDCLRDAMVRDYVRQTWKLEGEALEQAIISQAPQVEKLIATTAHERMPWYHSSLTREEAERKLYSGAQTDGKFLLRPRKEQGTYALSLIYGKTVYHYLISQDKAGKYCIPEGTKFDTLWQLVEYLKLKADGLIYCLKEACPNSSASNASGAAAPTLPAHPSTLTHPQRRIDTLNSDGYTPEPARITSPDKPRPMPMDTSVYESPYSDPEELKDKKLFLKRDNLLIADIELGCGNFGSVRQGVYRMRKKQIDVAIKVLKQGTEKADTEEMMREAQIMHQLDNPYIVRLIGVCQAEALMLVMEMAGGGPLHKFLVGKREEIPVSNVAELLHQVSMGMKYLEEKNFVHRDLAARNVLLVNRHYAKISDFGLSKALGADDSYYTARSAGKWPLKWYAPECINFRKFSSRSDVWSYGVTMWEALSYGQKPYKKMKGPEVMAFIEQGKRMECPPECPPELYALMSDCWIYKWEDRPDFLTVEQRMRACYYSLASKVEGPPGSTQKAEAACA
The test can be described thus: DELFIA assay (ZAP-70 kinase, phosphorylation of biotinylated poly(glu,tyr)). To be noted: ZAP-70 DELFIA, class symbols; read-out: Activity (IC50 in vitro). The class given is biochemical. A digest of the protocol: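 3.1 nM ZAP-70 pre-incubated 10 min at room temperature with compound ([…]) and 62.5 nM biotinylated poly(glu,tyr) in 62.5 mM Mops pH 7.0, 12.5 mM MgCl2, 12.5% glycerol, 6.25% DMSO (pre-incubation concentrations); ATP added from 5 mM stock, 30 min reaction, EDTA stop. Phosphorylation read by DELFIA europium anti-phosphotyrosine fluorescence (340/615).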

SMILES strings stand for the structures. pIC50: −log10 of the molar value.

Turning to `O=C(c1cc(CCCCc2ccccc2)nc2ccc(-c3ccc4c(c3)OCO4)cc12)N1CCC[C@H]1CN1CCCC1` [Compound 435], the pIC50 was above 6.00.

Take `O=C(c1cc(CC(O)c2ccc(C(F)(F)F)cc2)nc2ccc(-c3ccc4c(c3)OCO4)cc12)N1CCC[C@H]1CN1CCCC1` (stereo partly drawn) [Compound 436]: the pIC50 is above 6.00.

On to `NCc1ccc(CNc2cc(C(=O)N3CCC[C@H]3CN3CCCC3)c3cc(-c4ccc5c(c4)OCO5)ccc3n2)cc1` [Compound 437], for which the pIC50 is above 6.00.

In the case of `CC1CN(c2ccc(Cc3cc(C(=O)N4CCCC4CN4CCCC4)c4cc(-c5ccc6c(c5)OCO6)ccc4n3)cc2)CCN1` (stereo not drawn) [Compound 438], the pIC50 was above 6.00.

For `O=C(c1cc(Cc2ccc(N3CCNCC3)cc2)nc2ccc(-c3ccc4c(c3)OCO4)cc12)N1CCCC1CN1CCCC1` (stereo not drawn) [Compound 439], the pIC50 is above 6.00.

For `O=C(c1cc(Cc2ccc(N3CCN(c4ccncc4)CC3)cc2)nc2ccc(-c3ccc4c(c3)OCO4)cc12)N1CCCC1CN1CCCC1` (stereo not drawn) [Compound 440], the pIC50 is above 6.00.

For the molecule `CN(C)CCCN1CCN(c2ccc(Cc3cc(C(=O)N4CCCC4CN4CCCC4)c4cc(-c5ccc6c(c5)OCO6)ccc4n3)cc2)CC1` (stereo not drawn) [Compound 441], the pIC50 is above 6.00.

Take `CN(C)CCN1CCN(c2ccc(Cc3cc(C(=O)N4CCCC4CN4CCCC4)c4cc(-c5ccc6c(c5)OCO6)ccc4n3)cc2)CC1` (stereo not drawn) [Compound 442]: the pIC50 is above 6.00.

Consider `O=C(c1cc(Cc2ccc(N3CCN(Cc4ccncc4)CC3)cc2)nc2ccc(-c3ccc4c(c3)OCO4)cc12)N1CCCC1CN1CCCC1` (stereo not drawn) [Compound 443], for which the pIC50 was above 6.00.

As for `O=C(c1cc(Cc2ccc(N3CCN(CCc4ccncc4)CC3)cc2)nc2ccc(-c3ccc4c(c3)OCO4)cc12)N1CCCC1CN1CCCC1` (stereo not drawn) [Compound 444], the pIC50 is above 6.00.

`O=C(c1cc(Cc2ccc(N3CCC4(CC3)CNC4)cc2)nc2ccc(-c3ccc4c(c3)OCO4)cc12)N1CCCC1CN1CCCC1` (stereo not drawn) [Compound 445]: the pIC50 was above 6.00.

On to `O=C(c1cc(Cc2ccc(N3CCC4(CCNC4)CC3)cc2)nc2ccc(-c3ccc4c(c3)OCO4)cc12)N1CCCC1CN1CCCC1` (stereo not drawn) [Compound 446], for which the pIC50 was above 6.00.

For the molecule `O=C(c1cc(Cc2ccc(N3CCC4(CCNCC4)CC3)cc2)nc2ccc(-c3ccc4c(c3)OCO4)cc12)N1CCCC1CN1CCCC1` (stereo not drawn) [Compound 447], the pIC50 was above 6.00.

For the molecule `CN1CCN(c2ccc(Nc3cc(Nc4ccc(N5CCN(C)CC5)cc4)c4cc(-c5ccc6c(c5)OCO6)ccc4n3)cc2)CC1` [Compound 448], the pIC50 was above 6.00.

Take `c1cc(N2CCNCC2)ccc1Nc1cc(Nc2ccc(N3CCNCC3)cc2)c2cc(-c3ccc4c(c3)OCO4)ccc2n1` [Compound 449]: the pIC50 is above 6.00.
